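Five concentrations, 48 hours, 96-well plates. At the GI50, growth is halved.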 The source made the active and inactive calls. No stated cut-off is given here; in the data, active = GI50 up to about 1.1 µM and inactive = higher.
Legend:
Test in all cases: NCI-60 cell line screen, 48 h
[1] = system: A549
[2] = system: BT-549
[3] = system: CAKI-1
[4] = system: COLO 205
[5] = system: DU-145
[6] = system: HCC 2998
[7] = system: Hs-578T
[8] = system: IGROV-1
[9] = system: LOX IMVI
[10] = system: MDA-MB-435
[11] = system: MOLT-4
[12] = system: NCI-H23
[13] = system: NCI-H460
[14] = system: NCI-H522
[15] = system: OVCAR-8
[16] = system: RPMI-8226
[17] = system: SF-268
[18] = system: U-251
[19] = system: UACC-62
[20] = system: HOP-92

Measured: GI50

CC1(Cc2cc3c(cc2C2(c4ccc([N+](=O)[O-])cc4)OCCO2)OCO3)OCCO1
inactive: [1] 43.8 µM | [2] 29.6 µM | [3] 63.5 µM | [4] 67.6 µM | [5] > 100 µM | [6] > 100 µM | [7] 71.1 µM | [8] 51.1 µM | [9] > 100 µM | [10] 98.2 µM | [11] 32.7 µM | [12] 55.2 µM | [13] 59.8 µM | [14] 24.7 µM | [15] 59.2 µM | [16] 27.3 µM | [17] > 100 µM | [18] 71.3 µM | [19] 36 µM

O=C(c1ccccc1)n1[nH]c(=O)n(-c2ccc(Cl)cc2)c1=O
inactive: [1] > 100 µM | [2] > 100 µM | [3] > 100 µM | [4] > 100 µM | [5] > 100 µM | [6] > 100 µM | [7] > 100 µM | [8] > 100 µM | [9] > 100 µM | [10] > 100 µM | [11] > 100 µM | [12] > 100 µM | [13] > 100 µM | [15] > 100 µM | [16] > 100 µM | [17] > 100 µM | [18] > 100 µM | [19] > 100 µM

COC(=O)CCCC(=O)NC1=C(NCc2ccccc2)C(=O)c2ccccc2C1=O
inactive: [1] 56.5 µM | [2] 28.6 µM | [3] > 100 µM | [4] 23.8 µM | [5] > 100 µM | [6] > 100 µM | [7] > 100 µM | [8] 44.2 µM | [9] 46.2 µM | [10] 42.4 µM | [11] 34 µM | [12] 53.2 µM | [13] 52 µM | [14] 70.5 µM | [15] 68.4 µM | [16] 49.5 µM | [17] > 100 µM | [18] > 100 µM | [19] 29.2 µM

CC(=O)CCC1(C(=O)OCC(C)C)CCCC1=O (centres undefined)
inactive: [1] > 100 µM | [2] > 100 µM | [3] > 100 µM | [4] > 100 µM | [5] > 100 µM | [20] 90.6 µM | [7] > 100 µM | [8] > 100 µM | [9] > 100 µM | [10] > 100 µM | [11] > 100 µM | [12] > 100 µM | [13] > 100 µM | [14] > 100 µM | [15] > 100 µM | [17] > 100 µM | [18] > 100 µM | [19] > 100 µM

Cc1ccc2c(=O)c(C(=O)NNC(=S)NC3CCCCC3)c[nH]c2n1
inactive: [1] > 100 µM | [2] 71.3 µM | [3] 59.2 µM | [4] 64.6 µM | [5] > 100 µM | [7] 64.1 µM | [8] 35.6 µM | [9] 51.3 µM | [10] 30.1 µM | [11] 32.7 µM | [12] 94.8 µM | [13] 80 µM | [14] 51.6 µM | [15] > 100 µM | [16] 42.8 µM | [17] 96.8 µM | [18] 65.9 µM | [19] 62.4 µM

Cc1cc2c(c(S(=O)(=O)c3ccccc3[N+](=O)[O-])c1)NCCC2
inactive: [1] 40.3 µM | [2] 19.1 µM | [4] > 100 µM | [5] 77.1 µM | [6] 91.2 µM | [7] > 100 µM | [8] 95.7 µM | [9] 47.2 µM | [10] 25.6 µM | [12] 59.7 µM | [13] 66.7 µM | [14] 16.1 µM | [15] > 100 µM | [16] 85.3 µM | [17] 83.6 µM | [18] 83.9 µM | [19] 17.8 µM

NNC(=O)c1nnn(N)c1S
inactive: [1] > 100 µM | [2] > 100 µM | [3] 84.5 µM | [4] > 100 µM | [5] > 100 µM | [6] > 100 µM | [7] > 100 µM | [8] > 100 µM | [9] 79.6 µM | [10] > 100 µM | [11] > 100 µM | [12] > 100 µM | [13] > 100 µM | [14] > 100 µM | [15] > 100 µM | [16] > 100 µM | [17] > 100 µM | [18] > 100 µM | [19] > 100 µM

O=C1c2cc3c(cc2CC12Cc1cc4c(cc1C2=O)CCC4)CCC3
inactive: [1] > 100 µM | [2] > 100 µM | [3] > 100 µM | [4] > 100 µM | [5] > 100 µM | [6] > 100 µM | [7] > 100 µM | [8] > 100 µM | [9] > 100 µM | [10] > 100 µM | [11] > 100 µM | [12] > 100 µM | [13] > 100 µM | [14] > 100 µM | [15] > 100 µM | [16] > 100 µM | [17] > 100 µM | [18] > 100 µM | [19] > 100 µM

CCN(CC)c1ccc2cc(C(=O)Nc3ccccc3)c(=N)oc2c1
inactive: [1] > 100 µM | [2] > 100 µM | [3] > 100 µM | [4] > 100 µM | [5] > 100 µM | [6] > 100 µM | [20] > 100 µM | [7] > 100 µM | [8] > 100 µM | [9] > 100 µM | [10] > 100 µM | [11] > 100 µM | [13] > 100 µM | [15] > 100 µM | [16] > 100 µM | [17] > 100 µM | [18] > 100 µM | [19] > 100 µM

COc1cc([N+](=O)[O-])c(OC)c2c(Nc3ccc(S(=O)(=O)O)c4cc(S(=O)(=O)O)cc(S(=O)(=O)O)c34)cc(C)nc12
inactive: [1] > 100 µM | [2] > 100 µM | [3] > 100 µM | [4] > 100 µM | [5] > 100 µM | [7] > 100 µM | [8] > 100 µM | [9] > 100 µM | [10] > 100 µM | [11] > 100 µM | [12] > 100 µM | [14] > 100 µM | [15] > 100 µM | [17] > 100 µM | [18] > 100 µM | [19] > 100 µM

Oc1ccc(CCc2cc(O)cc(O)c2)cc1 [DIHYDRORESVERATROL]
inactive: [1] > 100 µM | [2] > 100 µM | [3] > 100 µM | [4] > 100 µM | [5] > 100 µM | [20] > 100 µM | [7] > 100 µM | [8] > 100 µM | [10] > 100 µM | [11] 90.2 µM | [12] > 100 µM | [13] > 100 µM | [14] > 100 µM | [15] > 100 µM | [16] 23.4 µM | [17] > 100 µM | [18] > 100 µM | [19] 47.1 µM
